Data taken from patent US20190307691A1, “HYDROGELS WITH LIPOSOMES FOR CONTROLLED RELEASE OF DRUGS” (NORTHERN ILLINOIS RESEARCH FOUNDATION, priority 2018, published 2019).

Columns and labels:
[1] = Differential scanning calorimetry for thermal stability; settings: DSC, measure of thermal stability
Procedure: Differential scanning calorimetry (DSC) was used to investigate the thermal stability as well as interaction between liposomes and entrapped protein.
For thermal stability analysis of liposomes and encapsulated protein, two mg of standard lipids, protein and liposome samples were loaded in aluminum pans along with the standard reference aluminum in the differential scanning calorimeter (Shimadzu DSC 60). The thermal profiles were recorded between 10° C. and 180° C. at a scan rate of 15° C./min for three cycles.

[2] = oral, in the absence of decarboxylase inhibitors; cited from earlier work
[3] = cited from earlier work
[4] = L-DOPA oxidation in solution (UV-Vis, LC/MS); type: physicochemical
Procedure: The solution was stored with minimal exposure to light. […] In order to accelerate the complete oxidation of L-DOPA starting material, the substance was reacted in at pH 10. […] These hydrophobic oxidation products were separated and collected for in vitro experiments with epithelialcells.
LC/MS analysis was performed using an LCQ Advantage Mass Spectrometer System with a Surveyor LC Pump and PDA Detector (Thermo Finnigan). Separations were performed on a 100 mm×3.0 mm Kinetex C18 column. Mobile phase was 0.1% formic acid in MeOH (B) balanced with water. […] Absorbance was monitored at 280 and 320 nm. For ESI-MS conditions, capillary temperature was 200° C. and spray voltage was set to 4.5 kV. […] Full spectra were collected between m/z range of 200-1000.

[5] = cited from earlier work; remark: listed apart in the source
ARPE-19 cells = test: MTT cell viability with Avastin and Avastin liposomes; type: cell-based; settings: exposed to 2 mg of the antibody
Procedure: ARPE-19 cells purchased from American Type Culture Collection were used. […] Cells were plated in 12-well plates with an initial seeding density of 5×10^4 cells per ml in each plate. Cells were grown to confluency for 4 days prior to experimentation; 12-well plates were used for MTT assays. 1.5 ml of 25 mg/ml Avastin solution was sterile filtered to create a stock solution that was transferred to a sterile centrifuge tube. Each well of the 12 well plate had its media aspirated out and was then rinsed with buffer which was also aspirated out. […] Enough media was added to each well to create a total volume of 1 ml in each well. […] 1.3 ml of 10% MTT 5 mg/ml in PBS and 11.7 ml of 90% media (with phenol red) was used. MTT in PBS was added to the media in a centrifuge tube and then sterile filtered. The filtered mixture was then plated on the 12 well plate (1 ml per well). The plate was then incubated for 90 minutes. After incubation, the MTT media was aspirated. 1 ml of DMSO per well was added. The MTT assay was read at 560 nm.

[6] = Intravitreal drug release and toxicity in rabbit's eye (Fluorotron, ELISA, histopathology); type: in vivo, Oryctolagus cuniculus (Dutch belted rabbits); settings: single intravitreal injection
Procedure: The efficacy of the liposomes and the combination product has been tested using rabbit models. The experimental design of this experiment involving Oryctolagus cuniculus (Dutch belted rabbits) was approved by the Northern Illinois University Institutional Animal Care and Use Committee (IACUC) and is as follows. Rabbits were divided into 4 groups and each rabbit was injected with the formulation in the right eye using left eye as control.
Drug release profiles in the rabbit's eye over a period of time was measured non-invasively using the Fluorotron. […] Light re-emitted (reflection and fluorescence) by the fluorescent tag on the protein is sampled from the 1.9×0.1 mm slit, aligned to the excitation and defined by an aperture Rd (which is confocal to Re). […] The configuration of these pupils is in the plane of the subject's pupil minimizes contributions from the fluorescence outside of the measurement point by separating the excitation and detection paths. Another band-pass filter rejects reflected excitation light, and the fluorescence collected by aperture Rd is detected using a red-extended end-on photomultiplier tube selected for low (<100 count/sec.) dark noise. As the focus lens is driven forward the emission signal is continuously monitored from retina to cornea, giving an intensity output. […]

RPE cells = settings: 2.5 mg/ml; cited from earlier work

## CC(C)CCC[C@@H](C)[C@H]1CC[C@H]2[C@@H]3CC=C4C[C@@H](O)CC[C@]4(C)[C@H]3CC[C@]12C [Cholesterol]
[1]
  Melting temperature, Tm: ~154° ° C.

## CCCCCCCCCCCCCC(=O)OC[C@H](COP(=O)([O-])OCC[N+](C)(C)C)OC(=O)CCCCCCCCCCCCC [DMPC]
[1]
  Melting temperature, Tm: ~42° ° C.

## CCCCCCCC/C=C\CCCCCCCC(=O)OC[C@H](COP(=O)(O)OCCN)OC(=O)CCCCCCC/C=C\CCCCCCCC [DOPE]
[1]
  Melting temperature, Tm: ~63° ° C.

## CCCCCCCCCCCCCCCCCC(=O)OCC(COP(=O)(O)OCC(O)CO)OC(=O)CCCCCCCCCCCCCCCCC (stereo not drawn) [DSPG]
[1]
  Melting temperature, Tm: ~40° ° C.

## N[C@@H](Cc1ccc(O)c(O)c1)C(=O)O [L-DOPA]
[2]
  unmetabolized drug reaching the brain: less than 1%
[3]; after 24 hr in neutral pH
  drug oxidized to melanin: 47%
[3]; under basic conditions
  drug oxidized: at least 50.9%
[4]; PBS pH 7.4, after 3 days, minimal exposure to light
  oxidation of L-DOPA: does not undergo complete oxidation
[4]; pH 7.4 solution, after 35 days
  oxidation of L-DOPA: substantial oxidation
[4]; pH 10, after 24 hours
  oxidation of L-DOPA: completely consumed

## Bevacizumab: anti-VEGF antibody, anti-angiogenic agent
[5]; intravitreal
  intravitreal half-life: about 4.32 days
[5]; maintained over a period of 30 days
  concentration in the vitreous: about 10 μg/ml
ARPE-19 cells
  cell viability (MTT): decreased slightly
[6]
  Time of release of a therapeutic concentrate: 5 weeks
RPE cells
  effect on RPE cells: cytotoxic effects
